In patent publication US9783510B2, “Small molecule mediated transcriptional induction of E-cadherin” (Vanderbilt University, priority 2014, dated 2017):

Tested on: E-cadherin expression in H520 cells
Experiment: E-cadherin expression, in-cell Western (ICW), H520 cells
Type: cell-based
Settings: Homo sapiens, NCI-H520
Description: SW620 and H520 cells (5×10^4/100 μL) were seeded in a 96-well plate prior to treatment. Cells were treated with 10 μM concentration of synthesized compound in quadruplicate for 24 hours in RPMI 1640 supplemented medium and 100 μg/mL penicillin-streptomycin. The cells were then fixed with 100% methanol for 20 minutes at 4° C. The wells were then washed 2 times with PBS, permeabilized in 2% bovine serum albumin (BSA) and 0.2% TritonX-100 in PBS for 30 minutes at room temperature with gentle agitation, and blocked in LI-COR blocking buffer for 30 minutes at room temperature with gentle agitation. The cells were then incubated with the following primary antibodies: anti-E-Cadherin (1:500) and anti-α-Tubulin (1:1000) diluted in blocking buffer (1:1 dilution in PBS) for 2 hours at room temperature with gentle agitation. The cells were washed 4 times in PBS-T for 5 minutes each, and then incubated with the following secondary antibodies conjugated to a fluorescent entity: IRDye 800-conjugated goat anti-rabbit IgG (1:1000) and IRDye-700-conjugated goat anti-mouse IgG (1:2000) in blocking buffer (1:1 dilution in PBS) with gentle agitation for 1 h at room temperature. The cells were washed 4 times in PBS-T for 5 minutes each followed by a single wash with PBS. All liquid was removed from the wells and the plates were visualized and analyzed on the Odyssey IR imaging system (LI-COR Biosciences).
The assay was further optimized in the following manner. The cells were washed 2 times with PBS, fixed in 100% methanol at room temperature for 15 minutes, and again washed 2 times with PBS. The cells were then incubated with the following primary antibodies: anti-E-Cadherin (1:200) and anti-α-Tubulin (1:2000) diluted in ice cold 2% bovine serum albumin (BSA) and 0.2% TritonX-100 in PBS for 1 hour at room temperature with gentle agitation. The cells were washed 2 times in PBS and then incubated with the following secondary antibodies conjugated to a fluorescent entity: Licor 800-conjugated goat anti-rabbit IgG (1:2000) and IRDye-700-conjugated goat anti-mouse IgG (1:2000) in ice cold 2% BSA and 0.2% TritonX-100 in PBS with gentle agitation for 45 minutes at room temperature. The wells were washed 2 times in PBS, dried, and analyzed as previously mentioned.
Changes in expression level of E-cadherin in response to 10 μM compound in H520 cells was determined in a cell-based functional assay as described above, and the data are shown in Table IV. The compound number corresponds to the compound numbers used in Table II.
EC50 of inducement of E-cadherin expression in H520 cells was determined in a cell-based functional assay as described above, and the data are shown in Table VI. The compound number corresponds to the compound numbers used in Table II.

EC50 (inducement of E-cadherin expression in H520 cells): 1 µM
SMILES: O=C(NCCCNC(=O)c1cccnc1O)c1cc(-c2ccccc2)on1 [Compound 13, N-(3-(2-hydroxynicotinamido)propyl)-5-phenylisoxazole-3-carboxamide]
fold induction at 10 µM (change in expression level of E-cadherin in response to 10 μM compound, 24 hours, H520 cells): 5.54
